Source: patent publication US20250172566A1, “SACCHARIDE SENSING SYSTEMS” (CARBOMETRICS LIMITED, priority 2022, published 2025)

Tests used:
[1] = Fluorescent solution phase glucose responsive assay (pH 7.4, 298 K)
Procedure: Fluorescence spectroscopy was performed on either a HORIBA Duetta or BMG Labtech CLARIOstar plus plate reader. Emission spectra were obtained using the appropriate excitation wavelength and at a temperature of either 298 or 310 K and at pH 7.4 unless otherwise stated. Data collection and analysis were performed using EzSpec software by HORIBA or CLARIOstar MARS software by BMG Labtech. Further analysis and processing were performed in Microsoft Excel.
A solution of GBM and FIM at the required concentrations were created in the appropriate media. The emission spectrum of the assay was then acquired by exciting at the designated excitation wavelength to obtain the baseline emission intensity for the assay. Aliquots of 2 M D-glucose (in the same media) were then added to give the required final glucose concentrations (e.g. 15 μL of 2 M D-glucose in 3 mL gives a final D-glucose concentration of 10 mM) and the assay allowed to reach equilibration. The emission spectra were collected after each addition of D-glucose and compared to the original baseline emission, monitoring at the typical emission maximum (Emmax), and the percentage increase or decrease recorded. Emission spectra acquired on either a Horiba Duetta fluorometer or Clariostar plus plate reader.
The glucose responsive fluorescence emission for different combinations of glucose binding molecules (GBM) and fluorescent inhibitor molecules (FIM) at various concentrations and in various media was tested as described above. All results obtained at pH 7.4 and 298 K unless otherwise stated.
All results obtained at pH 7.4 and 298 K unless otherwise stated.
Table 4 provides the composition of the assay media used as the code assigned to each media as used in Tables 1 to 3.

[2] = Fluorescent hydrogel phase glucose responsive assay (10 mM PBS, pH 7.4, 310 K)
[3] = Fluorescence lifetime glucose responsive assay (10 mM PBS, pH 7.4, 298 K); conditions: FIM 5 uM, Ex 450 nm
[4] = 5 mM D-glucose, GBM40 20 uM, FIM 5 uM, Ex 470/Emmax 520 nm, medium B (10 mM PBS)
[5] = 20 mM D-glucose, GBM40 20 uM, FIM 5 uM, Ex 470/Emmax 520 nm, medium B (10 mM PBS)
[6] = 80 mM D-glucose, GBM40 20 uM, FIM 5 uM, Ex 470/Emmax 520 nm, medium B (10 mM PBS)

C[N+](C)(C)[C@@H](CCCCn1cc(C[C@H](NC(=O)OC[C@@H]2[C@@H]3CCC#CCC[C@@H]32)C(=O)NCCOCCOCCn2cc(CNC(=O)c3ccc4c(c3)C(=O)OC43c4ccc(N)c(S(=O)(=O)[O-])c4Oc4c3ccc(N)c4S(=O)(=O)O)nn2)nn1)C(=O)NCC(CO[C@@H]1O[C@H](CO)[C@@H](O)[C@H](O)[C@H]1O)c1ccccc1 (some centres unmarked) [FIM60]
Change in Emmax for FIM at a particular D-glucose concentration ([1]; 5 mM D-glucose, GBM7 50 uM, FIM 5 uM, Ex 470/Emmax 520 nm, medium B (10 mM PBS)): 220% | Change in Emmax for FIM at a particular D-glucose concentration ([1]; 5 mM D-glucose, GBM15 50 uM, FIM 5 uM, Ex 470/Emmax 520 nm, medium B (10 mM PBS)): 80% | Change in Emmax for FIM at a particular D-glucose concentration ([1]; 5 mM D-glucose, GBM30 50 uM, FIM 1 uM, Ex 470/Emmax 520 nm, medium B (10 mM PBS)): 120% | Change in Emmax for FIM at a particular D-glucose concentration [1, 4]: 250% | Change in Emmax for FIM at a particular D-glucose concentration ([1]; 5 mM D-glucose, GBM40 20 uM, FIM 5 uM, Ex 470/Emmax 520 nm, medium C (human serum)): 250% | Change in Emmax for FIM at a particular D-glucose concentration ([1]; 5 mM D-glucose, GBM43 40 uM, FIM 5 uM, Ex 450/Emmax 520 nm, medium B (10 mM PBS)): 80% | Change in Emmax for FIM at a particular D-glucose concentration ([1]; 10 mM D-glucose, GBM15 50 uM, FIM 5 uM, Ex 470/Emmax 520 nm, medium B (10 mM PBS)): 130% | Change in Emmax for FIM at a particular D-glucose concentration ([1]; 10 mM D-glucose, GBM30 50 uM, FIM 1 uM, Ex 470/Emmax 520 nm, medium B (10 mM PBS)): 170% | Change in Emmax for FIM at a particular D-glucose concentration ([1]; 10 mM D-glucose, GBM43 40 uM, FIM 5 uM, Ex 450/Emmax 520 nm, medium B (10 mM PBS)): 125% | Change in Emmax for FIM at a particular D-glucose concentration ([1]; 20 mM D-glucose, GBM7 50 uM, FIM 5 uM, Ex 470/Emmax 520 nm, medium B (10 mM PBS)): 310% | Change in Emmax for FIM at a particular D-glucose concentration ([1]; 20 mM D-glucose, GBM15 50 uM, FIM 5 uM, Ex 470/Emmax 520 nm, medium B (10 mM PBS)): 200% | Change in Emmax for FIM at a particular D-glucose concentration ([1]; 20 mM D-glucose, GBM30 50 uM, FIM 1 uM, Ex 470/Emmax 520 nm, medium B (10 mM PBS)): 200% | Change in Emmax for FIM at a particular D-glucose concentration [1, 5]: 450% | Change in Emmax for FIM at a particular D-glucose concentration ([1]; 20 mM D-glucose, GBM40 20 uM, FIM 5 uM, Ex 470/Emmax 520 nm, medium C (human serum)): 430% | Change in Emmax for FIM at a particular D-glucose concentration ([1]; 20 mM D-glucose, GBM43 40 uM, FIM 5 uM, Ex 450/Emmax 520 nm, medium B (10 mM PBS)): 165% | Change in Emmax for FIM at a particular D-glucose concentration ([1]; 40 mM D-glucose, GBM7 50 uM, FIM 5 uM, Ex 470/Emmax 520 nm, medium B (10 mM PBS)): 400% | Change in Emmax for FIM at a particular D-glucose concentration ([1]; 40 mM D-glucose, GBM15 50 uM, FIM 5 uM, Ex 470/Emmax 520 nm, medium B (10 mM PBS)): 220% | Change in Emmax for FIM at a particular D-glucose concentration ([1]; 40 mM D-glucose, GBM30 50 uM, FIM 1 uM, Ex 470/Emmax 520 nm, medium B (10 mM PBS)): 220% | Change in Emmax for FIM at a particular D-glucose concentration ([1]; 40 mM D-glucose, GBM43 40 uM, FIM 5 uM, Ex 450/Emmax 520 nm, medium B (10 mM PBS)): 200% | Change in Emmax for FIM at a particular D-glucose concentration [1, 6]: 600% | Change in Emmax for FIM at a particular D-glucose concentration ([1]; 80 mM D-glucose, GBM40 20 uM, FIM 5 uM, Ex 470/Emmax 520 nm, medium C (human serum)): 500% | Change in Emmax for FIM at a particular D-glucose concentration ([1]; 80 mM D-glucose, GBM43 40 uM, FIM 5 uM, Ex 450/Emmax 520 nm, medium B (10 mM PBS)): 230% | Change in Emmax for FIM at a particular D-glucose concentration ([2]; 20 mM D-glucose, GBM15 50 uM, FIM 50 uM, Ex 480/Emmax 520 nm, hydrogel G (amino dextran/PEG/PEG3-azide)): 50% | Change in Emmax for FIM at a particular D-glucose concentration ([2]; 20 mM D-glucose, GBM30 100 uM, FIM 10 uM, Ex 480/Emmax 520 nm, hydrogel H (amino azide dextran/PEG)): 40%

C[N+](C)(C)[C@@H](CCCCn1cc(C[C@H](NC(=O)OC[C@@H]2[C@@H]3CCC#CCC[C@@H]32)C(=O)NCCOCCOCCn2cc(CNC(=O)c3ccc4c(c3)C(=O)OC43c4ccc(O)cc4Oc4cc(O)ccc43)nn2)nn1)C(=O)NCC(CO[C@@H]1O[C@H](CO)[C@@H](O)[C@H](O)[C@H]1O)c1ccccc1.O=CO (some centres unmarked) [FIM47]
Change in Emmax for FIM at a particular D-glucose concentration ([1]; 5 mM D-glucose, GBM15 50 μM, FIM 5 μM, medium B, Ex 470 nm, Emmax 520 nm): 130% | Change in Emmax for FIM at a particular D-glucose concentration [1, 4]: 265% | Change in Emmax for FIM at a particular D-glucose concentration ([1]; 10 mM D-glucose, GBM15 50 μM, FIM 5 μM, medium B, Ex 470 nm, Emmax 520 nm): 190% | Change in Emmax for FIM at a particular D-glucose concentration ([1]; 10 mM D-glucose, GBM40 20 uM, FIM 5 uM, Ex 470/Emmax 520 nm, medium B (10 mM PBS)): 410% | Change in Emmax for FIM at a particular D-glucose concentration ([1]; 20 mM D-glucose, GBM15 50 μM, FIM 5 μM, medium B, Ex 470 nm, Emmax 520 nm): 260% | Change in Emmax for FIM at a particular D-glucose concentration [1, 5]: 555% | Change in Emmax for FIM at a particular D-glucose concentration ([1]; 40 mM D-glucose, GBM15 50 μM, FIM 5 μM, medium B, Ex 470 nm, Emmax 520 nm): 310% | Change in Emmax for FIM at a particular D-glucose concentration ([1]; 40 mM D-glucose, GBM40 20 uM, FIM 5 uM, Ex 470/Emmax 520 nm, medium B (10 mM PBS)): 710% | Change in Emmax for FIM at a particular D-glucose concentration ([1]; 60 mM D-glucose, GBM15 50 μM, FIM 5 μM, medium B, Ex 470 nm, Emmax 520 nm): 340% | Change in Emmax for FIM at a particular D-glucose concentration ([1]; 80 mM D-glucose, GBM15 50 μM, FIM 5 μM, medium B, Ex 470 nm, Emmax 520 nm): 350% | Change in Emmax for FIM at a particular D-glucose concentration [1, 6]: 860% | Change in Emmax for FIM at a particular D-glucose concentration ([2]; 20 mM D-glucose, GBM39 50 uM, FIM 2 uM, Ex 470/Emmax 530 nm, hydrogel D (azido PEG star polymer)): 40% | Change in Emmax for FIM at a particular D-glucose concentration ([2]; 50 mM D-glucose, GBM39 50 uM, FIM 2 uM, Ex 470/Emmax 530 nm, hydrogel D (azido PEG star polymer)): 100% | Change in Emmax for FIM at a particular D-glucose concentration ([2]; 60 mM D-glucose, GBM39 50 uM, FIM 2 uM, Ex 470/Emmax 530 nm, hydrogel D (azido PEG star polymer)): 120% | Change in Emmax for FIM at a particular D-glucose concentration ([2]; 80 mM D-glucose, GBM39 50 uM, FIM 2 uM, Ex 470/Emmax 530 nm, hydrogel D (azido PEG star polymer)): 160% | Change in Emmax for FIM at a particular D-glucose concentration ([2]; 100 mM D-glucose, GBM39 50 uM, FIM 2 uM, Ex 470/Emmax 530 nm, hydrogel D (azido PEG star polymer)): 190%

CC(C)(C)OC(=O)NC(Cc1cn(CCCCC(C(=O)NCC(COC2OC(CO)C(O)C(O)C2O)c2ccccc2)[N+](C)(C)C)nn1)C(=O)NCCOCCOCCn1cc(-c2ccnc(-c3cc(-c4cn(CCOCCOc5cc(S(=O)(=O)[O-])c6ccc7c(S(=O)(=O)[O-])cc(S(=O)(=O)[O-])c8ccc5c6c87)nn4)ccn3)c2)nn1.[Ru+2].c1ccc(-c2ccccn2)nc1.c1ccc(-c2ccccn2)nc1 (centres unmarked) [FIM56]
Fluorescence lifetime component τ1 for FIM and GBM at a particular glucose concentration ([3]; 5 mM glucose, GBM15 20 uM): 695 ns | Fluorescence lifetime component τ2 for FIM and GBM at a particular glucose concentration ([3]; 5 mM glucose, GBM15 20 uM): 3040 ns | Fluorescence lifetime component τ1 for FIM and GBM at a particular glucose concentration ([3]; 20 mM glucose, GBM15 20 uM): 660 ns | Fluorescence lifetime component τ2 for FIM and GBM at a particular glucose concentration ([3]; 20 mM glucose, GBM15 20 uM): 3210 ns | Fluorescence lifetime component τ1 for FIM and GBM at a particular glucose concentration ([3]; 40 mM glucose, GBM15 20 uM): 625 ns | Fluorescence lifetime component τ2 for FIM and GBM at a particular glucose concentration ([3]; 40 mM glucose, GBM15 20 uM): 3260 ns | Lifetime component τ1 of FIM only [3]: 520 ns | Lifetime component τ2 of FIM only [3]: 3620 ns | Lifetime component τ1 of FIM after GBM addition ([3]; GBM15 20 uM): 650 ns | Lifetime component τ2 of FIM after GBM addition ([3]; GBM15 20 uM): 2500 ns
